Laboratory results: paper PMC9532562 (Acta Pharmaceutica Sinica. B, 2022)

How the values were obtained:
HDAC7 = target: T1, HDAC7 (Homo sapiens, UniProt Q8WUI4); assay: HDAC enzyme inhibition assay; type: biochemical
T1 sequence (Q8WUI4 1-952): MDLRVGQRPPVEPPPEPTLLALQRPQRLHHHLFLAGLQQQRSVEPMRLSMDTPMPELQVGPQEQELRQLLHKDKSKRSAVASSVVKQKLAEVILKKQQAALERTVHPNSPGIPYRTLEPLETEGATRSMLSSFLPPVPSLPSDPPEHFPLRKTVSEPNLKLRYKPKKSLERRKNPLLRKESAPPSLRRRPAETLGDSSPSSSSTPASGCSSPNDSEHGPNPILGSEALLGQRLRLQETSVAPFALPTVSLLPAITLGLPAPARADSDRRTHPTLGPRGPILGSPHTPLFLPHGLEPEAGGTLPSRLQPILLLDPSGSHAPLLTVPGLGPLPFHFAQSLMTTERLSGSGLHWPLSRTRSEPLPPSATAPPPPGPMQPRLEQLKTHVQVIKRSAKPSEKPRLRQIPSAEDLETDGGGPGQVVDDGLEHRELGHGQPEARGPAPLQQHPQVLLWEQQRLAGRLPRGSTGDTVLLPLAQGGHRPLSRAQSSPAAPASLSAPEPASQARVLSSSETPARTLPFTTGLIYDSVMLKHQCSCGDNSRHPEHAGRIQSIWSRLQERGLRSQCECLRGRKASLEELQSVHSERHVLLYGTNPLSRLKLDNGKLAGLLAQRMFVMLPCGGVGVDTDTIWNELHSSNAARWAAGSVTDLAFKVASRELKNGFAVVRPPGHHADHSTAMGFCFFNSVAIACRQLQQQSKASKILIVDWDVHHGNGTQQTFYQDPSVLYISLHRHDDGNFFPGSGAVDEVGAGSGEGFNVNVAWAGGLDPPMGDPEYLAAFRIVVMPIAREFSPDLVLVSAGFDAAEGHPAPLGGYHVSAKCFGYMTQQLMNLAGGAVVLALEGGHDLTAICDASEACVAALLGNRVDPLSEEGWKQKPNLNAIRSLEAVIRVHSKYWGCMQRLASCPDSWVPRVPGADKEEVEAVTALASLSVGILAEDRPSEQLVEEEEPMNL

HDAC9 = HDAC9 (Homo sapiens, UniProt Q9UKV0); assay: HDAC enzyme inhibition assay; type: biochemical
Sequence of HDAC9 (Q9UKV0 whole entry): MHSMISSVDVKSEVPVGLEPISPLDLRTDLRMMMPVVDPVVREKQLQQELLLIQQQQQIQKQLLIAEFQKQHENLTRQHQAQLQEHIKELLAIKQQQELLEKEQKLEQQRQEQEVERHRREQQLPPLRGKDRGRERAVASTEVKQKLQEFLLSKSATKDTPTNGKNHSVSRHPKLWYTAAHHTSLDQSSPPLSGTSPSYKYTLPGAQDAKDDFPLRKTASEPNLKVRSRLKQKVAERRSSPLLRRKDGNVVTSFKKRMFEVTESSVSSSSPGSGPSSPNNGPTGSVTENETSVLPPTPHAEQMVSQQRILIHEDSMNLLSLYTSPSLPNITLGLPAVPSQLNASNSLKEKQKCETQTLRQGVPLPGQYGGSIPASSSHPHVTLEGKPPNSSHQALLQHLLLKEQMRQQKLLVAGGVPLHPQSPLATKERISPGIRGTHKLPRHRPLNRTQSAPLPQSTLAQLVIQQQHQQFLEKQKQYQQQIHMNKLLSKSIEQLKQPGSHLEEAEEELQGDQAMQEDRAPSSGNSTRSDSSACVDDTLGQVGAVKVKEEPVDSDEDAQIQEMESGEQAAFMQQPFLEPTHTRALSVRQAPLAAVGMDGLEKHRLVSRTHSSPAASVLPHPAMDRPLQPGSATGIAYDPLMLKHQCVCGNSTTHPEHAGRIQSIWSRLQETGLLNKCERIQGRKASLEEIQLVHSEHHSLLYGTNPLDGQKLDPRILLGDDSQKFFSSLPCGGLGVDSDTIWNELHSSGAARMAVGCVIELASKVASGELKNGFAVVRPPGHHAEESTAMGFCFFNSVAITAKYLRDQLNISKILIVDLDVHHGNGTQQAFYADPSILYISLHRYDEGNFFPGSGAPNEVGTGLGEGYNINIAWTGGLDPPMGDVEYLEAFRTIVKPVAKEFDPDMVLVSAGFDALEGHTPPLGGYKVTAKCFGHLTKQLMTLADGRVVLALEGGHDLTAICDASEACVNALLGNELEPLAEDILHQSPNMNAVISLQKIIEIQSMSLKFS

HDAC2 = HDAC2 (Homo sapiens, UniProt Q92769); assay: HDAC enzyme inhibition assay; type: biochemical
Sequence of HDAC2 (Q92769 whole entry): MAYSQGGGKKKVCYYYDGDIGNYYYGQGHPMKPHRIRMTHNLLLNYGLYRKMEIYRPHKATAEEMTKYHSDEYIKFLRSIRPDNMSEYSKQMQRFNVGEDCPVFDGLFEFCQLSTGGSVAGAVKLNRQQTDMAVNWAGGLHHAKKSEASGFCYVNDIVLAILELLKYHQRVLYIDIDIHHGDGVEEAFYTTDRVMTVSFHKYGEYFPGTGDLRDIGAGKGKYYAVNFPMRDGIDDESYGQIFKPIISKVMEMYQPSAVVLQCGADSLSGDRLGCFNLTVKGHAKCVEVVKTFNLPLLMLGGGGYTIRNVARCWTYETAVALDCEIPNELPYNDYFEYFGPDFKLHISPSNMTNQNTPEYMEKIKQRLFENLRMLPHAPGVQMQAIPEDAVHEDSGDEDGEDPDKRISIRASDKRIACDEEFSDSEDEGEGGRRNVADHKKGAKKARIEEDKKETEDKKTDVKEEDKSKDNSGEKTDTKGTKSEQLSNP

HDAC10 = target: T2, HDAC10 (Homo sapiens, UniProt Q969S8); assay: HDAC enzyme inhibition assay; type: biochemical
T2 sequence (Q969S8 1-669): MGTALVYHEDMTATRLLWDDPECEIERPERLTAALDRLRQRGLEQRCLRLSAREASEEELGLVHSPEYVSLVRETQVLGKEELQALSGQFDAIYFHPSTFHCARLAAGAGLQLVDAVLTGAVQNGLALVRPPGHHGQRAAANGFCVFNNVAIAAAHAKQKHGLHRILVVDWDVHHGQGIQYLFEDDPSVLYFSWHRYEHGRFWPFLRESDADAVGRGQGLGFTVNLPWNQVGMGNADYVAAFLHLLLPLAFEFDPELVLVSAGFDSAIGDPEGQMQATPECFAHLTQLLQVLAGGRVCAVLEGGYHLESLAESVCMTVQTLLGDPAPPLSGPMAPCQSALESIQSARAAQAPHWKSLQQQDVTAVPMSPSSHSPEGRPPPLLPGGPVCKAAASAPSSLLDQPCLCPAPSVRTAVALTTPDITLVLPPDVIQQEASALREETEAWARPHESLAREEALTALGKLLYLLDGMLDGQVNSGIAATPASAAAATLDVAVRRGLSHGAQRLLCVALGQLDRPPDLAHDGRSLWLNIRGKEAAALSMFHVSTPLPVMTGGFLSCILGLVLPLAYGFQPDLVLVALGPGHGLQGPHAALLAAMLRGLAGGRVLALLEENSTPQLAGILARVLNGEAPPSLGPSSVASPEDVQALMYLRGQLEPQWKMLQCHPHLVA

HDAC3 = HDAC3 (Homo sapiens, UniProt O15379); assay: HDAC enzyme inhibition assay; type: biochemical
Sequence of HDAC3 (O15379 whole entry): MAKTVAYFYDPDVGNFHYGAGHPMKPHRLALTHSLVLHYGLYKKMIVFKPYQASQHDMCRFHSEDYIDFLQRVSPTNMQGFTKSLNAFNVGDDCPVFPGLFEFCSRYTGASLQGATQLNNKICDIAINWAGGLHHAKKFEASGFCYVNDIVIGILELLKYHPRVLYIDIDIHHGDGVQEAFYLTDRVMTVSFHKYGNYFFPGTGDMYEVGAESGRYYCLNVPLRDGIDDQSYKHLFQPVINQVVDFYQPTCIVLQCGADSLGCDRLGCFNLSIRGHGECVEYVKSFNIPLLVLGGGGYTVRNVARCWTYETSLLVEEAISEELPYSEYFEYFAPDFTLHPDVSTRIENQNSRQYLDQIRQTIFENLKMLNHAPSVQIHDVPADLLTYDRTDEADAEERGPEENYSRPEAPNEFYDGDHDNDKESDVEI
Sequence of HDAC3 (Q9Y618 395-489 partner limits assumed): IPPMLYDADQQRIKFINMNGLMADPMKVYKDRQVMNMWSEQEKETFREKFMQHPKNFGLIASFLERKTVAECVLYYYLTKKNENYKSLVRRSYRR

HDAC4 = HDAC4 (Homo sapiens, UniProt P56524); assay: HDAC enzyme inhibition assay; type: biochemical
Sequence of HDAC4 (P56524 whole entry): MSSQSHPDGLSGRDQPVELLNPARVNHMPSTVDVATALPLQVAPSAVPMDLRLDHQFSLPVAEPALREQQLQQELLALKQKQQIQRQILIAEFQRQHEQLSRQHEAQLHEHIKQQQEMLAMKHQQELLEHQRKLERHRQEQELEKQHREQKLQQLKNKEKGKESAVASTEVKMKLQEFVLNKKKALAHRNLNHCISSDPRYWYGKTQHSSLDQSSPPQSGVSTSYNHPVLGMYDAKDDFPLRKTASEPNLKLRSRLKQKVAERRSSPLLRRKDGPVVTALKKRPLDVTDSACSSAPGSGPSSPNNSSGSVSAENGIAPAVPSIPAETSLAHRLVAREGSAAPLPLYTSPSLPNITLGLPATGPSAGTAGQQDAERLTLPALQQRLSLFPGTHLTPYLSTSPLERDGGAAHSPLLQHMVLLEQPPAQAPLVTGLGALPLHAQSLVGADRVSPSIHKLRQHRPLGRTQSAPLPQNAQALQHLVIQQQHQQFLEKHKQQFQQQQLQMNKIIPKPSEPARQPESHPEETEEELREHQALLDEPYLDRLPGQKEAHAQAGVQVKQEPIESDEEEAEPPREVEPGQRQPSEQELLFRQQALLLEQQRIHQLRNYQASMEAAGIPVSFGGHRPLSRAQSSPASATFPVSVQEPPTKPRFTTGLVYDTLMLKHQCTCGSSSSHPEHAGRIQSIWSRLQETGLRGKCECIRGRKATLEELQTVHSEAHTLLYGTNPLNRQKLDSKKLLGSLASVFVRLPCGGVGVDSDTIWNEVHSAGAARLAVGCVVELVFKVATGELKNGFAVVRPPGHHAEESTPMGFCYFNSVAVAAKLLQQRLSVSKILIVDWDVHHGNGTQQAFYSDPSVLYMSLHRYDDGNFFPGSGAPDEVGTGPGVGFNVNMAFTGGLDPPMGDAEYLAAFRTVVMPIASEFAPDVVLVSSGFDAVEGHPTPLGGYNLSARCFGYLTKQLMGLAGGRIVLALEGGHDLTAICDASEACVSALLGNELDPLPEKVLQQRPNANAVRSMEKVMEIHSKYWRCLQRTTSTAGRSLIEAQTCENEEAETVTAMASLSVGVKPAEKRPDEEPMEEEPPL

HDAC6 = target: T3, HDAC6 (Homo sapiens, UniProt Q9UBN7); assay: HDAC enzyme inhibition assay; type: biochemical
T3 sequence (Q9UBN7 1-1215): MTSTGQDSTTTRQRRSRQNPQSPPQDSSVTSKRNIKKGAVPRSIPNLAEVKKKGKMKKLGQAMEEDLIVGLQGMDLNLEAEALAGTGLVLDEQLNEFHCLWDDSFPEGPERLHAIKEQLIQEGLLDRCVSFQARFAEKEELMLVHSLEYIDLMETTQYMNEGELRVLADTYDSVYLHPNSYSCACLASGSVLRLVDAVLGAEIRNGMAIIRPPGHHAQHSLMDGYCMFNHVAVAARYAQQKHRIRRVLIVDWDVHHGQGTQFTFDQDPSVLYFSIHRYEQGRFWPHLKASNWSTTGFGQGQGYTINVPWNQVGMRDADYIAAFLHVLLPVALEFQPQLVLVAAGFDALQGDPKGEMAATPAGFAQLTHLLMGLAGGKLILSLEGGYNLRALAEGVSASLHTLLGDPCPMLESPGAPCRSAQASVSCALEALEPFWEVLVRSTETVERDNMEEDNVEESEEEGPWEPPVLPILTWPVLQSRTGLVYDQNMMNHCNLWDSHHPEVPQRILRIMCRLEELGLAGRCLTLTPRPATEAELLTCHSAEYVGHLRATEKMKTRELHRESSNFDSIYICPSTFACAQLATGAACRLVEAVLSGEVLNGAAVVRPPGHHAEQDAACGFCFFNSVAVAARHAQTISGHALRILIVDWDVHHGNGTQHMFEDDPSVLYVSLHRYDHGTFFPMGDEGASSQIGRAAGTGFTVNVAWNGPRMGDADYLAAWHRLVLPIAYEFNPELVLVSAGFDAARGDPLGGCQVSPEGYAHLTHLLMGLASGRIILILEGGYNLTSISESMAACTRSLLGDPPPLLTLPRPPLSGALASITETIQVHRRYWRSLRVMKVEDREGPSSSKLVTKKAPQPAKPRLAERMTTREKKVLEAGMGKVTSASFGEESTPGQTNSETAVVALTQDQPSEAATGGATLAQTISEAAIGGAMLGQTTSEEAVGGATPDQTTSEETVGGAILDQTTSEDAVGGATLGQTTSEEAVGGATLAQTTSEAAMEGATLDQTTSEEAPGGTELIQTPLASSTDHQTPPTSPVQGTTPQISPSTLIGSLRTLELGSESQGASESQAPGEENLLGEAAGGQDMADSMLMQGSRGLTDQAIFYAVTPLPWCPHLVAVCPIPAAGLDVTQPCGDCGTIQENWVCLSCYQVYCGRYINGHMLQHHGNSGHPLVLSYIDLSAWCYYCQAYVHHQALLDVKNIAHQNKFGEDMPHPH

HDAC11 = target: T4, HDAC11 (Homo sapiens, UniProt Q96DB2); assay: HDAC enzyme inhibition assay; type: biochemical
T4 sequence (Q96DB2 1-347): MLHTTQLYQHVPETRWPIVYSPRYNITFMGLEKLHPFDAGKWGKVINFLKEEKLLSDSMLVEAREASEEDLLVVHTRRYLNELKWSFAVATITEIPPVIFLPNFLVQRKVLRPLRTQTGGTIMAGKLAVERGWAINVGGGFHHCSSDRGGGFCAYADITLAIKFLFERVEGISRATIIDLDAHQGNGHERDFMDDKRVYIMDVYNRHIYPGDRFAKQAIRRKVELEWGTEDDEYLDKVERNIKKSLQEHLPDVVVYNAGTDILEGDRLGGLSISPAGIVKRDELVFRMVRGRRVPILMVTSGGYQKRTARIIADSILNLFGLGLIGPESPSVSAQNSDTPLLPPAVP

HDAC5 = HDAC5 (Homo sapiens, UniProt Q9UQL6); assay: HDAC enzyme inhibition assay; type: biochemical
Sequence of HDAC5 (Q9UQL6 whole entry): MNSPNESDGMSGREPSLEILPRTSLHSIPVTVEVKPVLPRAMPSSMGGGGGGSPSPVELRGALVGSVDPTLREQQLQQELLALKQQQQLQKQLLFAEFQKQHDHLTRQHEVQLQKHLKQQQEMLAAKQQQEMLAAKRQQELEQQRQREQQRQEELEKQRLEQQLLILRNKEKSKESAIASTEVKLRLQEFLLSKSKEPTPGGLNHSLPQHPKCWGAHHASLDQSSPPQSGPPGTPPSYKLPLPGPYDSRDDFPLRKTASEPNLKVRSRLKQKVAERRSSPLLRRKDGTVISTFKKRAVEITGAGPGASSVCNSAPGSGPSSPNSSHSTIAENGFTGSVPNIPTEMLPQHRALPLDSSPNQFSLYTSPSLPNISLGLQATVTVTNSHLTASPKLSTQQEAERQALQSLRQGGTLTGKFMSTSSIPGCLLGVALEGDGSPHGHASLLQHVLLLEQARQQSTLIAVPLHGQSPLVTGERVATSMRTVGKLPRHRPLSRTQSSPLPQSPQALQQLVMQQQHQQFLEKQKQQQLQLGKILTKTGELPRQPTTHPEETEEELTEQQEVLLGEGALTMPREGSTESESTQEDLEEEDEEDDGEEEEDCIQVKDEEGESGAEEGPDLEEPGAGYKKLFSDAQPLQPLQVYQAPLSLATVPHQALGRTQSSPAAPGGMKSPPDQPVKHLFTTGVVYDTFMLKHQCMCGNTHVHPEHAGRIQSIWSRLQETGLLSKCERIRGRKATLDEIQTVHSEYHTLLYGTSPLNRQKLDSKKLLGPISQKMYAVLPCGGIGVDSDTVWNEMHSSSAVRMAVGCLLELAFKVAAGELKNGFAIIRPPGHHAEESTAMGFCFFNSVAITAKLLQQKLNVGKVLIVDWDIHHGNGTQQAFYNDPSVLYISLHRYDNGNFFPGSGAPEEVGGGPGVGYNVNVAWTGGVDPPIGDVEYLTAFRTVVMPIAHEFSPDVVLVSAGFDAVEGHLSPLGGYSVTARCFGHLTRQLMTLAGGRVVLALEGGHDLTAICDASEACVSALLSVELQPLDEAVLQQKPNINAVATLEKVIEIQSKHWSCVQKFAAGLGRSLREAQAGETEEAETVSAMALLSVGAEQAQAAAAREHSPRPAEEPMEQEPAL

HDAC8 = target: T5, HDAC8 (Homo sapiens, UniProt Q9BY41); assay: HDAC enzyme inhibition assay; type: biochemical
T5 sequence (Q9BY41 1-377): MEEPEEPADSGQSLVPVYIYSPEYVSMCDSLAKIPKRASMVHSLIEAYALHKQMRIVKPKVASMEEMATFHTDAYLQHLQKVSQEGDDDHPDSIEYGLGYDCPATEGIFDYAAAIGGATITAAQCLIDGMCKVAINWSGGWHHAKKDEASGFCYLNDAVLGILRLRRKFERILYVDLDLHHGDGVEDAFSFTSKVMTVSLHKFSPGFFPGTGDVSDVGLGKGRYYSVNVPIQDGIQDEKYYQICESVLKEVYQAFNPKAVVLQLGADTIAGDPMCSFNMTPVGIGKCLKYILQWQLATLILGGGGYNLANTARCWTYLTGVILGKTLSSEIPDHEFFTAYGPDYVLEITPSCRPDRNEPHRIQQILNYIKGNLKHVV

HDAC1 = HDAC1 (Homo sapiens, UniProt Q13547); assay: HDAC enzyme inhibition assay; type: biochemical
Sequence of HDAC1 (Q13547 whole entry): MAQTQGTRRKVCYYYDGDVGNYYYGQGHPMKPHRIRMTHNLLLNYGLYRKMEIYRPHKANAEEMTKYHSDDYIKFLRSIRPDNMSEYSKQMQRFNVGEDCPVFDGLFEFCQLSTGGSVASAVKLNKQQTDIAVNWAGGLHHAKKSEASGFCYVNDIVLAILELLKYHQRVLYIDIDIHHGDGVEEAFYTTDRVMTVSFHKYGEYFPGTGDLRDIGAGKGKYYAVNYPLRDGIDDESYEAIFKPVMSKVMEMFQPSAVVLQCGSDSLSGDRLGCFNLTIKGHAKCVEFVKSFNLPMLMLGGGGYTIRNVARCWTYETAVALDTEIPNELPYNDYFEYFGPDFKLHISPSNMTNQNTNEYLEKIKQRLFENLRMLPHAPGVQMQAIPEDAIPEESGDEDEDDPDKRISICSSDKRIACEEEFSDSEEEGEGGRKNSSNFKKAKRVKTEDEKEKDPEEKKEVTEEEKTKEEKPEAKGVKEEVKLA

CYP2C19 = CYP2C19 (Homo sapiens, UniProt P33261); assay: CYP inhibition assay, pooled human liver microsomes; type: in vitro ADME; conditions: probe S-mephenytoin
[1] = LogD determination, shake flask method; type: physicochemical; conditions: n-octanol/PBS, pH 7.4
Plasma protein binding = type: in vitro ADME; conditions: human
[2] = In vivo brain/plasma PK studies; parameters: species or system C57BL/6 mice; conditions: C57BL/6, mouse, ip, 1 mg/kg
CYP1A2 = target: T6, CYP1A2 (Homo sapiens, UniProt P05177); assay: CYP inhibition assay, pooled human liver microsomes; type: in vitro ADME; conditions: probe phenacetin
T6 sequence (P05177 1-516): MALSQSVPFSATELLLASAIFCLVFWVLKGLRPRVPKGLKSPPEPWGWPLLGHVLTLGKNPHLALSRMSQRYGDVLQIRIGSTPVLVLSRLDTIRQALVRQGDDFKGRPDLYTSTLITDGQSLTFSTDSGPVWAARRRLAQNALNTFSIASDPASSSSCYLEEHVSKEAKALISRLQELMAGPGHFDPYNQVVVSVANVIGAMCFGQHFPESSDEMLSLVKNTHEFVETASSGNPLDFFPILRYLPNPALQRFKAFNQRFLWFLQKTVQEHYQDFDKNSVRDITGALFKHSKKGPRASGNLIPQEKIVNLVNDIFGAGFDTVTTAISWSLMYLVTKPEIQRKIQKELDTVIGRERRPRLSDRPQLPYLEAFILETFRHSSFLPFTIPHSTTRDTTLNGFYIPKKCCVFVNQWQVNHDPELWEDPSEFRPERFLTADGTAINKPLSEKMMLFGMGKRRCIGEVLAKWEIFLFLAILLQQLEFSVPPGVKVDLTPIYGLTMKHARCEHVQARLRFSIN

CYP2D6 = CYP2D6 (Homo sapiens, UniProt P10635); assay: as above; type: in vitro ADME; conditions: probe dextromethorphan
Hepatocyte stability = type: in vitro ADME; conditions: human, hepatocytes
CYP2C9 = CYP2C9 (Homo sapiens, UniProt P11712); assay: CYP inhibition assay, pooled human liver microsomes; type: in vitro ADME; conditions: probe diclofenac
CYP3A4 = CYP3A4 (Homo sapiens, UniProt P08684); assay: as above; type: in vitro ADME; conditions: probe testosterone

| IC50 (HDAC7) [µM] | IC50 (HDAC9) [µM] | IC50 (HDAC2) [µM] | IC50 (HDAC10) [µM] | IC50 (HDAC3) [µM] | IC50 (HDAC4) [µM] | IC50 (HDAC6) [µM] | IC50 (HDAC11) [µM] | IC50 (HDAC5) [µM] | IC50 (HDAC8) [µM] | IC50 (HDAC1) [µM] | SMILES | further results |
| --- | --- | --- | --- | --- | --- | --- | --- | --- | --- | --- | --- | --- |
| > 10 | > 10 | > 10 | > 10 | > 10 | > 10 | 6.46 | 9.52 | > 10 | > 10 | > 10 | COc1cc(C(=O)NO)ccc1CN1CCCCc2ccccc21 [15a, N-Hydroxy-3-methoxy-4-((2,3,4,5-tetrahydro-1H-benzo[b]azepin-1-yl)methyl)benzamide] |  |
|  | > 10 | > 10 | > 10 | > 10 | > 10 | 4.16 | 3.52 | > 10 | 2.06 | > 10 | COc1cc(CN2CCCCc3ccccc32)ccc1C(=O)NO [15b, N-Hydroxy2-methoxy-4-((2,3,4,5-tetrahydro-1H-benzo[b]azepin-1-yl)methyl)benzamide] |  |
| 0.609 | 3.15 | > 10 | 8.96 | 2.96 | 2.12 | 0.0052 | 4.38 | 2.44 | 1.68 | 7.82 | O=C(NO)c1ccc(CN2CCCCc3ccccc32)c(F)c1 [15c, 3-Fluoro-N-hydroxy-4-((2,3,4,5-tetrahydro-1H-benzo[b]azepin-1-yl)methyl)benzamide] | inhibition at 25 min, 10 μmol/L (CYP2C19): 54%; logD at 1 h [1]: 3.4; fraction unbound (Plasma protein binding): 0.006; Kp at 4 h ([2]; brain and plasma, Brain/plasma ratio, C57BL/6 mice, 4 h): 2.3; concentration at 0.5 h ([2]; brain): 48.5 ng/mL; concentration at 1 h ([2]; brain): 11.5 ng/mL; concentration at 4 h ([2]; brain): 0.82 ng/mL; concentration at 0.5 h ([2]; plasma): 1.32 ng/mL; concentration at 1 h ([2]; plasma): 0.72 ng/mL; concentration at 4 h ([2]; plasma): 0.35 ng/mL; selectivity for HDAC6 over other HDAC isoforms (HDAC6; HDAC6 vs other HDAC isoforms): > 119 fold; inhibition at 10 min, 10 μmol/L (CYP1A2): 36.8%; inhibition at 10 min, 10 μmol/L (CYP2D6): 36.3%; half-life at 5 μM (Hepatocyte stability): 32.4 min; inhibition at 10 min, 10 μmol/L (CYP2C9): 34.8%; inhibition at 10 min, 10 μmol/L (CYP3A4): 89% |
| 3.02 | > 10 | > 10 | > 10 | 2.46 | 3.56 | 0.0251 | 5.42 | > 10 | 9.11 | > 10 | O=C(NO)c1ccc(CN2CCCCc3ccccc32)cc1F [15d, 2-Fluoro-N-hydroxy-4-((2,3,4,5-tetrahydro-1H-benzo[b]azepin-1-yl)methyl)benzamide] |  |
